Experimental findings from patent US20240082218A1, “PHARMACEUTICAL COMBINATIONS COMPRISING A KRAS G12C INHIBITOR AND USES OF A KRAS G12C INHIBITOR FOR THE TREATMENT OF CANCERS” (priority 2020, published 2024) are described below.

Series [1] can be described thus: Oral exposure and tolerability in dog.
Series [2] concerns KRAS G12C-mutated colorectal cancer PDX models. The experiment in a line: KRAS G12C-mutated patient-derived xenograft (PDX) models of human colorectal cancer. In kind it is in vivo, mice. To be noted: oral; Compound A 100 mg/kg daily alone or with TNO155 10 mg/kg twice daily; one animal per PDX model. How it is done:
Female nude mice were implanted subcutaneously with tumor fragments from each PDX model. Individual mice were assigned to treatment groups for dosing once their tumor volume reached 200-250 mm^3. One animal per PDX model was assigned to each treatment arm. […] The end of study per model was defined as minimum of 28 days treatment, or duration for untreated tumor to reach 1500 mm^3, or duration for two doublings of untreated tumor, whichever was slower. Tumor volumes were recorded and are represented as % tumor volume change f SEM for each group.

The target of series [3] is HRAS WT (Homo sapiens, UniProt P01112). Kind of series: cRAF recruitment 6 h cellular assay. In kind it is cell-based.
HRAS WT, sequence (P01112 whole entry): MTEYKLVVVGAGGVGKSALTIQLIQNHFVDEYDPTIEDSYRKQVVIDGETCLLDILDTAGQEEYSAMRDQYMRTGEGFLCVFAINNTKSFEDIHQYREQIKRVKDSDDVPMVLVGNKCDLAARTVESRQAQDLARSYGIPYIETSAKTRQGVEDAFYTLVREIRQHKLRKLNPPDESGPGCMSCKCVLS
For series [4], the system named is KYSE410 xenograft. The experiment in a line: Anti-tumor activity in KYSE410 (esophageal) xenografts. The note with it: 10, 30 and 100 mg/kg oral daily. In kind it is in vivo, mice.
The test system of series [5] is MEK Q56P mutated cell lines. Kind of series: Proliferation cellular assay. The series is classed as cell-based.
In series [6] the target is KRAS WT (Homo sapiens, UniProt P01116). The experiment in a line: cRAF recruitment 6 h cellular assay. The series is classed as cell-based.
The target of series [7] is T1, KRAS G12C_Y96D (GDP) (Homo sapiens, UniProt P01116, G12C/Y96D).
T1 construct: the cDNA encoding KRAS, NRAS, and HRAS comprised aa 1-169; made in house; host or cells: E. coli BL21(DE3)
Kind of series: Covalent rate constants by RapidFire MS. The series is classed as binding. To be noted: n=3. How it is done: (§1) The E. coli expression constructs used in this study were based on the pET system and generated using standard molecular cloning techniques. […] Point mutations were introduced with the QuikChange Lightning Site-Directed Mutagenesis kit (Agilent). All final expression constructs were sequence verified by Sanger sequencing.
(§2) Cell pellets were resuspended in buffer A (20 mM Tris, 500 mM NaCl, 5 mM imidazole, 2 mM TCEP, 10% glycerol, pH 8.0) supplemented with Turbonuclease (Merck) and cOmplete protease inhibitor tablets (Roche). The cells were lysed by three passages through a homogenizer (Avestin) at 800-1000 bar and the lysate clarified by centrifugation at 40000 g for 40 min. The lysate was loaded onto a HisTrap HP 5 ml column (Cytiva) mounted on an ÅKTA Pure 25 chromatography system (Cytiva). Contaminating proteins were washed away with buffer A and bound protein was eluted with a linear gradient to buffer B (buffer A supplemented with 200 mM imidazole). During dialysis O/N the N-terminal His affinity purification tags on the non-tagged and avi-tagged proteins were cleaved off by TEV or HRV3C protease, respectively. The protein solution was re-loaded onto a HisTrap column and the flow through containing the target protein collected. Guanosine 5′-diphosphate sodium salt (GDP, Sigma) or GppNHp-Tetralithium salt (Jena Bioscience) was added to a 24-32× molar excess over protein. […] After 1 hour at room temperature the buffer was exchanged on a PD-10 desalting column (Cytiva) against 40 mM Tris, 200 mM (NH4)2SO4, 0.1 mM ZnCl2, pH 8.0. […] 40 U Shrimp Alkaline Phosphatase (New England Biolabs) was added to GppNHp containing samples only. The sample was then incubated for 1 hour at 5° C. Finally, MgCl2 was added to a concentration of about 30 mM.
(§3) Reactions were stopped at different time points by addition of formic acid to 1%. […] In parallel, compound solubility was assessed by nephelometry and compound concentrations resulting in measurable turbidity were excluded from curve fitting. […]

The target of series [8] is T2, KRAS G12C_H95Q (GDP) (Homo sapiens, UniProt P01116, G12C/H95Q).
T2 construct: the cDNA encoding KRAS, NRAS, and HRAS comprised aa 1-169; made in house; host or cells: E. coli BL21(DE3)
Kind of series: Covalent rate constants by RapidFire MS. In kind it is binding. The note with it: n=2. How it is done:
as §1, §2, §3

In series [9] the target is T3, KRAS G12C_Y96C (GDP) (Homo sapiens, UniProt P01116, G12C/Y96C).
T3 construct: the cDNA encoding KRAS, NRAS, and HRAS comprised aa 1-169; made in house; host or cells: E. coli BL21(DE3)
The experiment in a line: Covalent rate constants by RapidFire MS. In kind it is binding. The note with it: n=2. Here is the method:
as §1, §2, §3

In series [10] the target is T4, KRASG12C (Homo sapiens, UniProt P01116, G12C). The experiment in a line: Cellular target occupancy 6 h. In kind it is cell-based.
Series [11] concerns KRAS G12C-mutated cell lines. The experiment in a line: Proliferation cellular assay. The series is classed as cell-based.
In series [12] the target is T4, KRASG12C. Kind of series: In vivo KRASG12C target occupancy in MIA PaCa-2 xenografts. Details: endogenous in cells; host or cells: MIA PaCa-2 tumour xenografts in mice. How it is done: (§4) KRASG12C inhibition can be assessed by measuring free KRASG12C levels (target occupancy) and other biomarkers in the MAPK signaling pathway, such as decreased levels of phosphorylated ERK1/2 (pERK) and downregulation of DUSP6 mRNA transcript. […] In the less sensitive NCI-H2122 xenografts, orally administered JDQ443 (100 mg/kg QD) achieved approximately 80% KRASG12C inhibition and 90% decrease in DUSP6 mRNA transcript, causing stasis which is the maximum response in this model upon MAPK pathway inhibition.

Series [13] has as its system pERK. The experiment in a line: In vitro pERK inhibition in H358 cancer cells. The note with it: Homo sapiens, NCI-H358. In kind it is cell-based. How it is done: as §4
The subject of series [14] is NCI-H2030 xenograft. Kind of series: Anti-tumor activity in NCI-H2030 xenografts. In kind it is in vivo, mice. To be noted: 10, 30 and 100 mg/kg oral daily.
Series [15] deals with KRAS G12C-mutated cell lines. The experiment in a line: pERK 6 h cellular assay. The series is classed as cell-based. To be noted: Hec50, 6 h, read-out: pERK 6 h EC50 KRAS^G12C.
The test system of series [16] is DUSP6 mRNA transcript. The experiment in a line: In vivo DUSP6 mRNA in NCI-H2122 xenografts. The note with it: 100 mg/kg QD oral. Here is the method:
as §4

Series [17] has as its system MEK Q56P mutated cell lines. Kind of series: pERK 6 h cellular assay. The series is classed as cell-based. The note with it: Hec50, 6 h, read-out: pERK 6 h EC50 MEK^Q56P.
The subject of series [18] is advanced solid tumors harboring the KRAS G12C mutation. To be noted: patients; preliminary data, trial ongoing.
Protocol: The study is conducted in adult patients with advanced solid tumors who harbor the KRAS G12C mutation. In expansion, advanced (metastatic or unresectable) non-small cell lung cancer patients who harbor the KRAS G12C mutation and who are in the second or third line treatment setting will be enrolled.
In particular, it may be administered at a total daily dose of 400 mg, administered once daily or twice daily. It may also be administered at a total daily dose of 200 mg, administered once daily or twice daily.
It may also be administered at a total daily dose of 600 mg, administered once or twice daily.
TNO155 is administered p.o. QD or BID in a 2 week on/1 week off schedule or continuously.
TNO155 may be administered at a total daily dose ranging from 10 to 80 mg, or from 10 to 60 mg. For example, the total daily dose of TNO155 may be selected from 10, 15, 20, 30, 40, 60 and 80 mg. For example, TNO may be dosed at a total daily dose of 10, 15, 20 or 30 mg.
The total daily dose of TNO155 may be administered continuously, QD (once a day) or BID (twice a day) on QD or BID on a 2 weeks on/l week off schedule. The total daily dose of TNO155 may be administered continuously, QD (once a day) or BID (twice a day) on QD or BID on continuously (i.e. without a drug holiday). […]

pEC50, pIC50: −log10 of the molar value. Marks after values point to notes of the source that are not given here.

On to `C=CC(=O)N1CC2(CC(n3nc(-c4ccc5c(cnn5C)c4)c(-c4c(Cl)c(C)cc5[nH]ncc45)c3C)C2)C1` (single isomer, unassigned) [Compound A, 1-{6-[(4M)-4-(5-Chloro-6-methyl-1H-indazol-4-yl)-5-methyl-3-(1-methyl-1H-indazol-5-yl)-1H-pyrazol-1-yl]-2-azaspiro[3.3]heptan-2-yl}prop-2-en-1-one], for which the oral bioavailability result in [1] was “orally bioavailable”. The tolerability result in series [1] is on record as “well-tolerated”. Also, the “tumor response in CRC PDX models” value in [2] was “regression of one PDX model and to a slight to moderate tumor growth delay in some PDX models”. The pEC50 in series [3] is under 5.00; in series [6], under 5.00; in series [10], 7.52; in [15] it was 7.70; in [17] it was under 5.00. The “pattern of maximal response” value in series [4] and in [14] was “moderate tumor growth inhibition” each time. Moreover, the GI50 in series [5] was determined as 4000 nM; in [11], 30 nM. Moreover, the “Second order rate constant (Kinact/KI)” value worked out at 90 M⁻¹ s⁻¹ in [7], 9500 M⁻¹ s⁻¹ in series [8] and 650 M⁻¹ s⁻¹ in [9]. In series [12] (MIA PaCa-2 xenografts, 30 mg/kg QD oral), this molecule returned an inhibition at 30 mg/kg of about 90%. Moreover, the “KRASG12C TO t1/2” value in [12] (in vivo, MiaPaCa2 model) was about 66 h. The same molecule gave a pIC50 in series [13] of 7.70. In series [16], the “decrease in DUSP6 mRNA transcript” value is “approximately 90%”. In addition, the clinical efficacy entry in series [18] is “early signs of clinical efficacy”. Besides, the “clinical safety and tolerability” value in [18] is “acceptable safety and tolerability profile”.

Usually pEC50 stands for the negative decadic logarithm of the EC50, by convention in mol/L. As usually defined, the GI50 is the concentration at which growth is held to half of that of the control. Read a high GI50 as lower sensitivity of the cells. In general, inhibition refers to the percentage by which the read-out fell short of the control. Read a high inhibition as a response far below the control. The term pIC50 denotes −log10 of the IC50, conventionally taken in molar units. Read a low pIC50 as a high IC50.
